Measurements from patent EP3315028B1, “USE OF INHIBITORS OF NLP PROTEINS AS PHYTOPHARMACEUTICALS FOR PLANT PATHOGEN CONTROL” (Kemijski Institut, priority 2016, dated 2018).
“Also recorded” adds a separate entry of the source.

Key:
tobacco leaves = experiment: Control infiltration of tobacco leaves with compounds alone (necrosis); details: compound at the final 1 mM concentration, no NLP protein, 5 % DMSO (Figure 4)
Description: This biological test may be used to assess the impact of compounds on the functionality of NLPs. The NLP protein solution is injected in the absence or presence of the compounds into tobacco leaves of healthy plants. The plants are then observed for 1-3 days and checked for the presence of necrosis.
Compounds: Compounds were prepared as stock solutions with a concentration of 10 mM in DMSO. Appropriate working solutions were prepared by appropriate dilution of the stock solution. The concentration of DMSO in the test solution was 5 %.
Tobacco plants: Tobacco plants (Nicotiana tabacum White Burley) were cultured in chambers for growing plants under controlled conditions of light, humidity and temperature up to the age of 5-7 weeks.
Protein solution, compound and appropriate volume of ultrapure water were mixed in Eppendorf tubes. The mixture was mixed well and injected in the lower epidermis of tobacco leaves. We have injected 50 µL of solution. The area of injected solution was labelled on tobacco leaves. We used ultrapure water, 5 % DMSO, protein solutions of NLPs at different concentrations and appropriate dilutions of compounds as control solutions. The area on the lower side of the leaf, which was infiltrated with solutions, was photographed immediately after injection, and then after 24, 48 and 72 hours. On the third day the plant leaf was photographed also from the top side.

Phytophthora infestans = assay type: in vivo, Phytophthora infestans (strain 88069); details: for growth of the pathogen P. infestans on potato leaves, visual analysis: 1 mM compound in 10 µL drops with 5 × 10^4 mL^-1 zoospores, 4 days, 18 °C, vs control compound (Figure 6A); for amount of pathogen DNA by real-time PCR, control samples vs samples with compound: 1 mM compound, potato leaves 4 days after infection, Student's t-test, *** P <0.001 (Figure 6B)

Row | SMILES | necrosis of tobacco leaves caused by compound solution alone (tobacco leaves) | growth of the pathogen P. infestans on potato leaves, visual analysis (Phytophthora infestans) | amount of pathogen DNA by real-time PCR, control samples vs samples with compound (Phytophthora infestans)
1 | Cc1ccc2occ(C3NC(C(=O)O)CS3)c(=O)c2c1 (stereo not drawn) [Compound I, 2-(6-methyl-4-oxochromen-3-yl)-1,3-thiazolidin-3-ium-4-carboxylate] | did not cause necrosis; also recorded: Necrosis was not caused | able to inhibit growth of the pathogen | statistically significant amounts of pathogen DNA in control samples
2 | COc1ccc(Nc2ccccc2C(=O)O)cc1 [Compound IIa, 2-[(4-methoxyphenyl)amino]benzoic acid] | did not cause necrosis; also recorded: Necrosis was not caused | able to inhibit growth of the pathogen | statistically significant amounts of pathogen DNA in control samples
